Tests used:
[1] = test system: bermuda grass (Cynodon dactylon (L.) Pers.); assay: Foliar treatment pot test on bermuda grass, visual growth inhibition rate (Test Example 2); format: in vivo; conditions: in Cynodon dactylon, foliar treatment at 5.0 to 7.0-leaf stage, 21st day after treatment, read-out: Growth inhibition rate (%) of bermuda grass, Measured value
Description: When the herbicidal activity in a case where two active ingredients are combined, is larger than the simple sum of the respective herbicidal activities of the two active ingredients (the expected activity), it is called a synergistic effect. The activity expected by the combination of two active ingredients can be calculated as follows (Colby S. R., “Weed”, vol. 15, p. 20-22, 1967). E=α+β-(α×β÷100) where α: growth inhibition rate when treated with x (g/ha) of herbicide X, β: growth inhibition rate when treated with y (g/ha) of herbicide Y, E: growth inhibition rate expected when treated with x (g/ha) of herbicide X and y (g/ha) of herbicide Y. Growth inhibition rate (%)=0 (equivalent to the non-treated area) to 100 (complete kill) Upland field soil was put into a 1/1,000,000 ha pot, and seeds of bermuda grass (Cynodon dactylon (L.) Pers.) were sown. When the bermuda grass reached 5.0 to 7.0-leaf stage, predetermined amounts of water dispersible granules comprising flazasulfuron as an active ingredient (trade name: […]) were diluted with water (corresponding to 1,000 L/ha) containing 0.05 vol % of an agricultural adjuvant (trade name: […]) and applied for foliar treatment by a small sprayer. On the 21st day after treatment, the state of growth of the bermuda grass was visually observed to determine the growth inhibition rate. The growth inhibition rate (%) (measured value) and the growth inhibition rate (%) calculated in the same manner as in Test Example 1 are shown in Table 2.

[2] = test system: crabgrass (Digitaria sanguinalis.); assay: Foliar treatment pot test on crabgrass, visual growth inhibition rate (Test Example 1); format: in vivo; conditions: foliar treatment at 3.8 to 4.0-leaf stage, 28th day after treatment, read-out: Growth inhibition rate (%) of crabgrass, Measured value
Description: When the herbicidal activity in a case where two active ingredients are combined, is larger than the simple sum of the respective herbicidal activities of the two active ingredients (the expected activity), it is called a synergistic effect. The activity expected by the combination of two active ingredients can be calculated as follows (Colby S. […] E=α+β-(α×β÷100) where α: growth inhibition rate when treated with x (g/ha) of herbicide X, β: growth inhibition rate when treated with y (g/ha) of herbicide Y, E: growth inhibition rate expected when treated with x (g/ha) of herbicide X and y (g/ha) of herbicide Y. Upland field soil was put into a 1/1,000,000 ha pot, and seeds of crabgrass (Digitaria sanguinalis.) were sown. When the crabgrass reached 3.8 to 4.0-leaf stage, predetermined amounts of water dispersible granules comprising flazasulfuron as an active ingredient (trade name: […] manufactured by Ishihara Sangyo Kaisha, Ltd.) were diluted with water (corresponding to 300 L/ha) containing 0.1 vol % of an agricultural adjuvant (trade name: […] manufactured by NIHON NOHYAKU CO., LTD.) and applied for foliar treatment by a small sprayer. On the 28th day after treatment, the state of growth of the crabgrass was visually observed to determine the growth inhibition rate in accordance with the following evaluation standard. The growth inhibition rate (%) (measured value) and the growth inhibition rate (%) (calculated value) calculated by the Colby's formula are shown in Table 1. Growth inhibition rate (%)=0 (equivalent to the non-treated area) to 100 (complete kill)

Compound	inhibition at 10 g/ha [1] [%]	inhibition at 200 g/ha ([1]; dose 200 g/ha) [%]	inhibition at 12.5 g/ha ([2]; dose 12.5 g/ha) [%]	inhibition at 150 g/ha ([1]; dose 150 g/ha) [%]	inhibition at 15 g/ha ([2]; dose 15 g/ha) [%]	inhibition at 40 g/ha ([2]; dose 40 g/ha) [%]
COc1cc(OC)nc(NC(=O)NS(=O)(=O)c2ncccc2C(F)(F)F)n1 [Flazasulfuron, 1-(4,6-dimethoxypyrimidin-2-yl)-3-(3-trifluoromethyl-2-pyridylsulfonyl)urea]	0	45	87	–	–	–
COc1cc(OC)nc(NC(=O)NS(=O)(=O)c2ncccc2C(=O)N(C)C)n1 [Nicosulfuron, 2-(4,6-dimethoxypyrimidin-2-ylcarbamoylsulfamoyl)-N,N-dimethylnicotinamide]	8	–	–	90	7	22

From patent publication US8673815B2, “Herbicidal composition” (Ishihara Sangyo Kaisha, Ltd., priority 2010, dated 2014)
